Data as given in patent publication US8258159B2, “Inhibitors of the α2β1/GPIa-IIa integrin” (The Trustees Of The University Of Pennsylvania, priority 2005, dated 2012).
Like-named read-outs stand apart in the source and are kept apart here.

How the values were obtained:
Type in all cases: cell-based
α1β1 = molecular target: T1, α1β1 (Homo sapiens, UniProt P05556+P56199); experiment: Cell adhesion assay to assess specificity: α1-transfected K562 cells on collagen IV; conditions: read-out: % inhibition at 3 μM, α1β1
T1 construct: Marcinkiewicz (Temple University, Philadelphia, Pa.); host or cells: K562
Procedure: (§1) The ligands (3 μg/ml of collagen IV for […] or 3 μg/ml of collagen I for α2β1) for the test designed to assess the specificity of representative embodiments of the instant compounds for the α2β1 integrin were immobilized on 96-well flat microtiter plates (100 μl for each well) in PBS buffer solution overnight at 4° C. In the case of VCAM (3 μg/ml, for α4β1) and fibronectin (10 μg/ml, for α5β1), 20 mM acetic acid was used instead of PBS buffer solution. As those skilled in the art will recognize, VCAM is a known endothelial ligand for α4β1/VLA-4, and fibronectin is a known ligand for […]. In the case of α1β1 and α2β1, blocking was performed with 1% BSA in HBSS buffer solution containing Mg^2+ (but without Ca^2+) for 1 hour. In the case of α4β1 and α5β1, 1% BSA in HyQ HBSS buffer solution containing Ca^2+ and Mg^2+ was used. […] After centrifugation and washing with buffer solution containing 1% BSA, cells were re-suspended in same buffer solution (1×10^6 cells/ml) and incubated in the presence of a different concentration of inhibitors at room temperature for 15 minutes. Cells were added to the wells (100 μl/well) and incubated at 37° C. for 30 minutes. Unbound cells were washed out and bound cells were lysed by the addition of 0.5% Triton X-100.
(§2) The K562 cells expressing α5β1 integrin, Jurkat cells expressing α4β1, and K562 cells transfected with α1 and α2 integrins were provided by Dr. C. Marcinkiewicz (Temple University, Philadelphia, Pa.).
(§3) Plates were read using a Cytofluor 2350 fluorescence plate reader (Millipore, Bedford, Mass.) with a 485 nm (excitation) and 530 nm (emission).

α2β1 = molecular target: T2, α2β1 (Homo sapiens, UniProt P05556+P17301); experiment: Cell adhesion assay to assess specificity: α2-transfected K562 cells on collagen I
T2 construct: Marcinkiewicz (Temple University, Philadelphia, Pa.); host or cells: K562
Procedure: as §1, §2, §3

α4β1 = molecular target: T3, α4β1 (Homo sapiens, UniProt P05556+P13612); experiment: Cell adhesion assay to assess specificity: Jurkat cells on VCAM
T3 construct: Jurkat cells expressing α4β1; Marcinkiewicz (Temple University, Philadelphia, Pa.); host or cells: Jurkat
Procedure: as §1, §2, §3

α2β1 integrin = molecular target: T4, α2β1 integrin (Homo sapiens, UniProt P05556+P17301); experiment: Platelet adhesion assay (human platelet adhesion to type I collagen)
T4 construct: endogenous in cells; host or cells: gel-filtered human platelets of a single donor
Procedure: The inhibitory strength of the compounds of the present disclosure was analyzed as against platelet adhesion to type I collagen. Ninety-six well flat bottom microtiter plates (Immulon 2, Dynatech Laboratories, Chantilly, Va.) were coated with collagen, purified human fibrinogen, or bovine serum albumin, each dissolved in 50 mM NaHCO3 buffer, pH 8.0, containing 150 mM NaCl as previously described. See Bennett J S, Chan C, Vilaire G, Mousa S A, DeGrado W F. Agonist-Activated αvβ3 on Platelets and Lymphocytes Binds to the Matrix Protein Osteopontin. J Biol Chem. 272, 8137-814) (1997). Unoccupied protein binding sites on the wells were blocked with 5 mg/ml bovine serum albumin dissolved in the same buffer. Human platelets were isolated from blood anticoagulated with 0.1 volume 3.8% sodium citrate by gel-filtration using a 4 mM HEPES buffer, pH 7.4, containing 135 mM NaCl, 2.7 mM KCl, 5.6 mM glucose, 3.3 mM NaH2PO4, 0.35 mg/ml bovine serum albumin and various concentrations of CaCl2 or MgCl2 according to the experiment. One hundred μl aliquots of the gel-filtered platelet suspension containing 1-2×10^8 platelets were added to the protein-coated wells in the absence or presence of a platelet agonist. Following an incubation for 30 min at 37° C. without agitation, the plates were washed 4 times with the Tris-buffered NaCl, containing 2 mM MgCl2, pH 7.4, and the number of adherent platelets measured using the colorimetric assay reported by Bellavite P, Andrioli G, Guzzo P, et al. A colorimetric method for the measurement of platelet adhesion in microtiter plates. Anal Biochem. 216, 444-450 (1994). Briefly, 150 μl of a 0.1 M citrate buffer, pH 5.4, containing 5 mM p-nitrophenyl phosphate and 0.1% Triton X-100 was added to the wells after washing. After an incubation for 60 min at room temperature in the absence of ambient light, color was developed by the addition of 100 μl of 2N NaOH and, using EL800 Universal Microplate Reader (Bio-Tek Instruments, Inc., Winooski, Vt.), read in microtiter plate reader at 405 nm.
The potencies of the compounds of the present disclosure were determined by testing the ability of a range of concentrations of each compound to inhibit human platelet adhesion to soluble collagen under static conditions. Owing to the fact that soluble collagen is a specific ligand for α2β1 integrin, this is an accepted method of assessing α2β1 inhibition on platelets.
IC50 values were determined by using the platelets of a single donor. In cases where multiple assays were performed, the reported results reflect the average IC50 value derived from the separate assays.

[1] = human platelet adhesion to type I (soluble, monomeric) collagen, static conditions, single donor, read-out: IC50
[2] = platelets on collagen I, read-out: IC50 (nM), α2β1, Platelet, Collagen I

T4 sequence (P17301 30-1181): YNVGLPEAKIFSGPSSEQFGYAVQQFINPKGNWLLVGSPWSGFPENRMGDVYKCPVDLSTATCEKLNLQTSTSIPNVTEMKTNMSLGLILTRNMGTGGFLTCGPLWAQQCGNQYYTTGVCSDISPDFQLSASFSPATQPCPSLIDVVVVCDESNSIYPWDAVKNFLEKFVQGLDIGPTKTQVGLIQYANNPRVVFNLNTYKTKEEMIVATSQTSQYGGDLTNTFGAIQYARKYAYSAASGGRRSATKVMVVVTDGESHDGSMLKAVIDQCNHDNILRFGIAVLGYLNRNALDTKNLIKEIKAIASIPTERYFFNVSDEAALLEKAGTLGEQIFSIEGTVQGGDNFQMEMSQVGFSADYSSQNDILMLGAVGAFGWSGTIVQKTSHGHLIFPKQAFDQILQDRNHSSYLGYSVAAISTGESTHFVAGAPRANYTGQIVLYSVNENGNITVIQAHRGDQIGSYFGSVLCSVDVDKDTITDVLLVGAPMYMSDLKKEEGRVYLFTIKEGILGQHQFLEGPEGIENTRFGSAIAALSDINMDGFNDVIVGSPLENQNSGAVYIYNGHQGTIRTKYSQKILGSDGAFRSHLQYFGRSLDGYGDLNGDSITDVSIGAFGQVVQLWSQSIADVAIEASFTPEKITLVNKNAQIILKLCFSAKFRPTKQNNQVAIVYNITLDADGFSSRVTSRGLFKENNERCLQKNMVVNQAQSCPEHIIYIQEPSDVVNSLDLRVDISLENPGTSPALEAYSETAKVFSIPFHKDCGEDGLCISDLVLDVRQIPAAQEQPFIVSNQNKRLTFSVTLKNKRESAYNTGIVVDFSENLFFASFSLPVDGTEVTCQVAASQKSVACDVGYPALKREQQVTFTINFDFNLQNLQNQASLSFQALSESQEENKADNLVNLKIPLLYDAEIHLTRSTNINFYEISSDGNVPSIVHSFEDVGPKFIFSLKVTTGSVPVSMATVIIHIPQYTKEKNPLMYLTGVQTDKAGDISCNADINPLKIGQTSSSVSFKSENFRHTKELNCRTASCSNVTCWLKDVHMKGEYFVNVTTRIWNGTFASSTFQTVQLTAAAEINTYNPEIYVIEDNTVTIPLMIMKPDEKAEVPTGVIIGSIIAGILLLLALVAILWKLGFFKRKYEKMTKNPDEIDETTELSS
T4 sequence (P05556 21-798): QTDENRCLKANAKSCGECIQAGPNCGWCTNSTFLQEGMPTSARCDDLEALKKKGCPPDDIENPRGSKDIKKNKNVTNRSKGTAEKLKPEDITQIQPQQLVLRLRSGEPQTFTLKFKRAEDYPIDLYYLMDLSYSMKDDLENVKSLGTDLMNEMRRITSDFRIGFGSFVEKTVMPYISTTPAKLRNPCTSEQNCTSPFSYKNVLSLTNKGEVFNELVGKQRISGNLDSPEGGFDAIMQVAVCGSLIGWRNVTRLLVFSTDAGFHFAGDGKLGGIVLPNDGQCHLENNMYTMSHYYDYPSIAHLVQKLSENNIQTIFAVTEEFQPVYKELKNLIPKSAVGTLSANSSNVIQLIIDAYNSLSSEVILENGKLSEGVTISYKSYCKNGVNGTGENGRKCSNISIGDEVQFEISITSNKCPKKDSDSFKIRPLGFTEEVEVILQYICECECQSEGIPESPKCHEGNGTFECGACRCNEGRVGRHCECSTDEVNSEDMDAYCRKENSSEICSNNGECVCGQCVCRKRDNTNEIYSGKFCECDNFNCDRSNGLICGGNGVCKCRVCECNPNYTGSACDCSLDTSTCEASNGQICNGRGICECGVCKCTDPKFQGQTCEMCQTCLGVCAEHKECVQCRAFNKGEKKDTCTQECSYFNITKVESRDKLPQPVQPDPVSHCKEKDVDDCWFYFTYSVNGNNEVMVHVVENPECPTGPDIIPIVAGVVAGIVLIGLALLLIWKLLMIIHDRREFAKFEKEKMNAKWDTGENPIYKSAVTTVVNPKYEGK
T3 sequence (P13612 34-1032): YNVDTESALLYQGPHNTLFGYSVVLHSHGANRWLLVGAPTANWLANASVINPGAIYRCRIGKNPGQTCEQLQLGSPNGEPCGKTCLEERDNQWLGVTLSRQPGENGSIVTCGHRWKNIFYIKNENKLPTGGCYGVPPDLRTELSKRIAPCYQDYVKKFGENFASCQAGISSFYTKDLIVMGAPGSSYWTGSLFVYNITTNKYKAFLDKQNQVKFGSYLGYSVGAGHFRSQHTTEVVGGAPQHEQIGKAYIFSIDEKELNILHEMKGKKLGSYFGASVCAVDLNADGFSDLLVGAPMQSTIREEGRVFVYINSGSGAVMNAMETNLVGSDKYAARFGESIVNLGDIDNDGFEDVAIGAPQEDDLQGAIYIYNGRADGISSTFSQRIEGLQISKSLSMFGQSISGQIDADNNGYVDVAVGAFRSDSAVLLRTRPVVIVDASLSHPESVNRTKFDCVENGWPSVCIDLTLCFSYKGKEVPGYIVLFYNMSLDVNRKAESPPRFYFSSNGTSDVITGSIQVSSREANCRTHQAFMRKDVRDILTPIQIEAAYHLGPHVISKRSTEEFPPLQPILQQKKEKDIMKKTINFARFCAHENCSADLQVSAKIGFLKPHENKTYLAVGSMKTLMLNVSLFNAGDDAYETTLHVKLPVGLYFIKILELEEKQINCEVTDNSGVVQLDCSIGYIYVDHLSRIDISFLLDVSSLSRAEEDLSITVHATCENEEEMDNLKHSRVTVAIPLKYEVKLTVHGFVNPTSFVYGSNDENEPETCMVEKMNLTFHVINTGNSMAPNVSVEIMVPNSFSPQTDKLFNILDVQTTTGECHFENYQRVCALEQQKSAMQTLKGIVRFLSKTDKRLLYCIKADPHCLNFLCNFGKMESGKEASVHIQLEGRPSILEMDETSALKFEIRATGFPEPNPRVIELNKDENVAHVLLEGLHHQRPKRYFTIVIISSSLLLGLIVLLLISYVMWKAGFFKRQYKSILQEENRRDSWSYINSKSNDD
T3 sequence (P05556 21-798): as the sequence (P05556 21-798) above
T2 sequence (P17301 30-1181): as the sequence (P17301 30-1181) above
T2 sequence (P05556 21-798): as the sequence (P05556 21-798) above
T1 sequence (P56199 29-1179): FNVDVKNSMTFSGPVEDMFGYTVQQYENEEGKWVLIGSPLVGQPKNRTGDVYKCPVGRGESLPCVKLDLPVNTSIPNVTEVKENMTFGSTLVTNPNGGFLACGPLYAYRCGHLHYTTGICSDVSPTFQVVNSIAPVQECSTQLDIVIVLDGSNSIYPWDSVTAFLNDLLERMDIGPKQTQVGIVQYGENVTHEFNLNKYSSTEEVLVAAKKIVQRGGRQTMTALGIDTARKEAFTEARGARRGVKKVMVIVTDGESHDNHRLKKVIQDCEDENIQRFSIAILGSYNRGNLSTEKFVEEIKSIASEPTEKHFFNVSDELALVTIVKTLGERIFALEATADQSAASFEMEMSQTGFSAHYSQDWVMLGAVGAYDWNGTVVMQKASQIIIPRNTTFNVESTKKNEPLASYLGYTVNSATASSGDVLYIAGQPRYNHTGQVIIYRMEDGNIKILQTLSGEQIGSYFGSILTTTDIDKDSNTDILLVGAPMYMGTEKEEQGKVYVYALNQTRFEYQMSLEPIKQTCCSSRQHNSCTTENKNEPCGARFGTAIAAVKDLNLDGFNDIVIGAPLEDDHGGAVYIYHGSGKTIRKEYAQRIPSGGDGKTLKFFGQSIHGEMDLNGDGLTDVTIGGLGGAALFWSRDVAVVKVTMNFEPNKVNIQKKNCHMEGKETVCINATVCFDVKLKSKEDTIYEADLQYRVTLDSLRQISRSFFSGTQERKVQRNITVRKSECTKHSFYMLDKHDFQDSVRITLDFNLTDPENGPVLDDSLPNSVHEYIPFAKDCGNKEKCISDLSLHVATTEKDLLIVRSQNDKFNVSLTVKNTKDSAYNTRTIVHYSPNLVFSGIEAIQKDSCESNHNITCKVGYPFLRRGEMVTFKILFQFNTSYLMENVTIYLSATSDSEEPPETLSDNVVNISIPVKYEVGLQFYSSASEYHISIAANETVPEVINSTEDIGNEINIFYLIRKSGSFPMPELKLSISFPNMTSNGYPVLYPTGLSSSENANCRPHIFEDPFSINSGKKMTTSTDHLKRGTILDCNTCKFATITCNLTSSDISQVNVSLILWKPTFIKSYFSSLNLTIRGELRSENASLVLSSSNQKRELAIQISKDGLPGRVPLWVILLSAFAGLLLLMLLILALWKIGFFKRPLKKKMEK
T1 sequence (P05556 21-798): as the sequence (P05556 21-798) above

Structure (SMILES) | inhibition at 3 µM (α1β1) [%] | IC50 (α2β1) [nM] | IC50 (α4β1) [nM] | IC50 (α2β1 integrin; [1]) [nM] | IC50 (α2β1 integrin; [2]) [nM]
Cc1cc(C)cc(S(=O)(=O)N2CCC[C@H]2C(=O)N[C@@H](CNC(=O)NCc2ccccc2)C(=O)O)c1 [Compound 31, 3-(3-Benzyl-ureido)-2-{[1-(3,5-dimethyl-benzenesulfonyl)-pyrrolidine-2-carbonyl]-amino}-propionic acid] | 26 | 89 | 740 | 29 | 29
O=C(NCc1ccccc1)NC[C@H](NC(=O)[C@@H]1CCCN1S(=O)(=O)c1cc(Cl)cc(Cl)c1)C(=O)O [Compound 48, 3-(3-Benzyl-ureido)-2-{[1-(3,5-dichloro-benzenesulfonyl)-pyrrolidine-2-carbonyl]-amino}-propionic acid] | 32 | 83 | 637 | 17 | 17
